Data reported in ChEMBL document CHEMBL3797052 (Eur J Med Chem, 2016).

test system: SN12C; experiment: Antiproliferative activity against human SN12C cells assessed as growth inhibition after 48 hrs by sulforhodamine B assay; type: functional; details: not given

Compound	GI50	TGI
CNC(=O)c1cc(Oc2ccc3nc(NC(=O)c4cc(C(F)(F)F)cc(C(F)(F)F)c4)sc3c2)ccn1	3.22 µM	12.5 µM

same assay, conditions: read-out: LC50 (the source's name)

Compound	CC50
CNC(=O)c1cc(Oc2ccc3nc(NC(=O)c4cc(C(F)(F)F)cc(C(F)(F)F)c4)sc3c2)ccn1	89.8 µM

test system: not listed separately; experiment: Antiproliferative activity against human RXF393 cells assessed as growth inhibition after 48 hrs by sulforhodamine B assay; type: functional; details: RXF 393, 48 h

Compound	GI50	TGI
CNC(=O)c1cc(Oc2ccc3nc(NC(=O)c4cc(C(F)(F)F)cc(C(F)(F)F)c4)sc3c2)ccn1	2790 nM	8.37 µM

same assay, conditions: RXF 393, 48 h, read-out: LC50 (the source's name)

Compound	CC50
CNC(=O)c1cc(Oc2ccc3nc(NC(=O)c4cc(C(F)(F)F)cc(C(F)(F)F)c4)sc3c2)ccn1	40 µM

test system: not listed separately; experiment: Antiproliferative activity against human SKOV3 cells assessed as growth inhibition after 48 hrs by sulforhodamine B assay; type: functional; details: SK-OV-3, 48 h

Compound	GI50	TGI
CNC(=O)c1cc(Oc2ccc3nc(NC(=O)c4cc(C(F)(F)F)cc(C(F)(F)F)c4)sc3c2)ccn1	2520 nM	7.98 µM

same assay, conditions: SK-OV-3, 48 h, read-out: LC50 (the source's name)

Compound	CC50
CNC(=O)c1cc(Oc2ccc3nc(NC(=O)c4cc(C(F)(F)F)cc(C(F)(F)F)c4)sc3c2)ccn1	73.7 µM

test system: not listed separately; experiment: Antiproliferative activity against human OVCAR8 cells assessed as growth inhibition after 48 hrs by sulforhodamine B assay; type: functional; details: OVCAR-8, 48 h

Compound	GI50	LC50	TGI
CNC(=O)c1cc(Oc2ccc3nc(NC(=O)c4cc(C(F)(F)F)cc(C(F)(F)F)c4)sc3c2)ccn1	3.06 µM	69.9 µM	13 µM

test system: not listed separately; experiment: Antiproliferative activity against human RPMI8226 cells assessed as cell growth at 10^-7 M after 48 hrs by sulforhodamine B assay; type: functional; details: RPMI-8226, 48 h, read-out: Activity

Compound	growth at 0.1 µM
CNC(=O)c1cc(Oc2ccc3nc(NC(=O)c4cc(C(F)(F)F)cc(C(F)(F)F)c4)sc3c2)ccn1	98%

test system: NCI-H226; experiment: Antiproliferative activity against human NCI-H226 cells assessed as cell growth at 10^-7 M after 48 hrs by sulforhodamine B assay; type: functional; details: NCI-H226, 48 h, read-out: Activity

Compound	growth at 0.1 µM
CNC(=O)c1cc(Oc2ccc3nc(NC(=O)c4cc(C(F)(F)F)cc(C(F)(F)F)c4)sc3c2)ccn1	99%

test system: SK-MEL-28; experiment: Antiproliferative activity against human SK-MEL-28 cells assessed as growth inhibition after 48 hrs by sulforhodamine B assay; type: functional; details: SK-MEL-28, 48 h

Compound	GI50	TGI
CNC(=O)c1cc(Oc2ccc3nc(NC(=O)c4cc(C(F)(F)F)cc(C(F)(F)F)c4)sc3c2)ccn1	3.76 µM	43.7 µM

same assay, conditions: SK-MEL-28, 48 h, read-out: LC50 (the source's name)

Compound	CC50
CNC(=O)c1cc(Oc2ccc3nc(NC(=O)c4cc(C(F)(F)F)cc(C(F)(F)F)c4)sc3c2)ccn1	> 100 µM

test system: MDA-MB-435; experiment: Antiproliferative activity against human MDA-MB-435 cells assessed as growth inhibition after 48 hrs by sulforhodamine B assay; type: functional; details: MDA-MB-435, 48 h

Compound	GI50	TGI
CNC(=O)c1cc(Oc2ccc3nc(NC(=O)c4cc(C(F)(F)F)cc(C(F)(F)F)c4)sc3c2)ccn1	3.28 µM	20.4 µM

same assay, conditions: MDA-MB-435, 48 h, read-out: LC50 (the source's name)

Compound	CC50
CNC(=O)c1cc(Oc2ccc3nc(NC(=O)c4cc(C(F)(F)F)cc(C(F)(F)F)c4)sc3c2)ccn1	> 100 µM

test system: SK-MEL-5; experiment: Antiproliferative activity against human SK-MEL-5 cells assessed as cell growth at 10^-7 M after 48 hrs by sulforhodamine B assay; type: functional; details: SK-MEL-5, 48 h, read-out: Activity

Compound	growth at 0.1 µM
CNC(=O)c1cc(Oc2ccc3nc(NC(=O)c4cc(C(F)(F)F)cc(C(F)(F)F)c4)sc3c2)ccn1	96%

test system: 786-0; experiment: Antiproliferative activity against human 786-0 cells assessed as cell growth at 10^-7 M after 48 hrs by sulforhodamine B assay; type: functional; details: 786-0, 48 h, read-out: Activity

Compound	growth at 0.1 µM
CNC(=O)c1cc(Oc2ccc3nc(NC(=O)c4cc(C(F)(F)F)cc(C(F)(F)F)c4)sc3c2)ccn1	90%

test system: SN12C; experiment: Antiproliferative activity against human SN12C cells assessed as cell growth at 10^-7 M after 48 hrs by sulforhodamine B assay; type: functional; details: read-out: Activity

Compound	growth at 0.1 µM
CNC(=O)c1cc(Oc2ccc3nc(NC(=O)c4cc(C(F)(F)F)cc(C(F)(F)F)c4)sc3c2)ccn1	101%

test system: not listed separately; experiment: Antiproliferative activity against human DU145 cells assessed as cell growth at 10^-7 M after 48 hrs by sulforhodamine B assay; type: functional; details: DU-145, 48 h, read-out: Activity

Compound	growth at 0.1 µM
CNC(=O)c1cc(Oc2ccc3nc(NC(=O)c4cc(C(F)(F)F)cc(C(F)(F)F)c4)sc3c2)ccn1	105%

test system: not listed separately; experiment: Antiproliferative activity against human Hs 578T cells assessed as cell growth at 10^-7 M after 48 hrs by sulforhodamine B assay; type: functional; details: read-out: Activity

Compound	growth at 0.1 µM
CNC(=O)c1cc(Oc2ccc3nc(NC(=O)c4cc(C(F)(F)F)cc(C(F)(F)F)c4)sc3c2)ccn1	93%

test system: KM12; experiment: Antiproliferative activity against human KM12 cells assessed as growth inhibition after 48 hrs by sulforhodamine B assay; type: functional; details: KM12, 48 h

Compound	GI50	LC50	TGI
CNC(=O)c1cc(Oc2ccc3nc(NC(=O)c4cc(C(F)(F)F)cc(C(F)(F)F)c4)sc3c2)ccn1	2700 nM	92.7 µM	11 µM

test system: not listed separately; experiment: Antiproliferative activity against human HCT116 cells assessed as growth inhibition after 48 hrs by sulforhodamine B assay; type: functional; details: HCT-116, 48 h

Compound	GI50	LC50 (concentration killing 50% of the starting cells)	TGI
CNC(=O)c1cc(Oc2ccc3nc(NC(=O)c4cc(C(F)(F)F)cc(C(F)(F)F)c4)sc3c2)ccn1	3.41 µM	42.4 µM	11.9 µM

test system: not listed separately; experiment: Antiproliferative activity against human HOP62 cells assessed as growth inhibition after 48 hrs by sulforhodamine B assay; type: functional; details: HOP-62, 48 h

Compound	GI50	LC50	TGI
CNC(=O)c1cc(Oc2ccc3nc(NC(=O)c4cc(C(F)(F)F)cc(C(F)(F)F)c4)sc3c2)ccn1	3.36 µM	51.6 µM	10.8 µM

test system: not listed separately; experiment: Antiproliferative activity against human Hs 578T cells assessed as growth inhibition after 48 hrs by sulforhodamine B assay; type: functional; details: not given

Compound	GI50	TGI
CNC(=O)c1cc(Oc2ccc3nc(NC(=O)c4cc(C(F)(F)F)cc(C(F)(F)F)c4)sc3c2)ccn1	3.15 µM	13.3 µM

same assay, conditions: read-out: LC50 (the source's name)

Compound	CC50
CNC(=O)c1cc(Oc2ccc3nc(NC(=O)c4cc(C(F)(F)F)cc(C(F)(F)F)c4)sc3c2)ccn1	> 100 µM

test system: MDA-MB-468; experiment: Antiproliferative activity against human MDA-MB-468 cells assessed as growth inhibition after 48 hrs by sulforhodamine B assay; type: functional; details: MDA-MB-468, 48 h

Compound	GI50	TGI
CNC(=O)c1cc(Oc2ccc3nc(NC(=O)c4cc(C(F)(F)F)cc(C(F)(F)F)c4)sc3c2)ccn1	3.18 µM	14.2 µM

same assay, conditions: MDA-MB-468, 48 h, read-out: LC50 (the source's name)

Compound	CC50
CNC(=O)c1cc(Oc2ccc3nc(NC(=O)c4cc(C(F)(F)F)cc(C(F)(F)F)c4)sc3c2)ccn1	> 100 µM

molecular target: CYP2C9 (Homo sapiens, UniProt P11712); experiment: Inhibition of recombinant human CYP2C9 assessed as remaining enzyme activity using CYP2C9 green as substrate at 10 uM after 5 mins in presence of NADP by fluorescence plate reader analysis; type: ADME; details: recombinant human CYP2C9, probe CYP2C9 green, read-out: Activity
Sequence (P11712 whole entry): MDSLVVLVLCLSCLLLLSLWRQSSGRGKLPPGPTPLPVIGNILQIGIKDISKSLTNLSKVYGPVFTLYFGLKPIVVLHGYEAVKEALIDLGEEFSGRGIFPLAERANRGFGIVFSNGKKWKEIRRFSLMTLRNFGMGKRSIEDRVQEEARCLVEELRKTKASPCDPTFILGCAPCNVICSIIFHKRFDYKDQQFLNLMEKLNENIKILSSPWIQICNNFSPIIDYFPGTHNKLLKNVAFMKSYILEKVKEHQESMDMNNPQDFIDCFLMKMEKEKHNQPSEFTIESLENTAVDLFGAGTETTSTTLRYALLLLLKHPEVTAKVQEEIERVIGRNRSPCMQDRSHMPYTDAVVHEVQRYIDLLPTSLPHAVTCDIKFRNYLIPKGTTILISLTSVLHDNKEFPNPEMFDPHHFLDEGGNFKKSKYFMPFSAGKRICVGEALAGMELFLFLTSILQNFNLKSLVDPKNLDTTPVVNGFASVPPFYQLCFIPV

Compound	activity at 5 min, 10 µM
CNC(=O)c1cc(Oc2ccc3nc(NC(=O)c4cc(C(F)(F)F)cc(C(F)(F)F)c4)sc3c2)ccn1	32.7%

test system: SR; experiment: Antiproliferative activity against human SR cells assessed as cell growth at 10^-8 M after 48 hrs by sulforhodamine B assay; type: functional; details: read-out: Activity

Compound	growth at 0.01 µM
CNC(=O)c1cc(Oc2ccc3nc(NC(=O)c4cc(C(F)(F)F)cc(C(F)(F)F)c4)sc3c2)ccn1	91%

test system: not listed separately; experiment: Antiproliferative activity against human SF268 cells assessed as cell growth at 10^-8 M after 48 hrs by sulforhodamine B assay; type: functional; details: SF-268, 48 h, read-out: Activity

Compound	growth at 0.01 µM
CNC(=O)c1cc(Oc2ccc3nc(NC(=O)c4cc(C(F)(F)F)cc(C(F)(F)F)c4)sc3c2)ccn1	93%

test system: Malme-3M; experiment: Antiproliferative activity against human MALME-3M cells assessed as cell growth at 10^-8 M after 48 hrs by sulforhodamine B assay; type: functional; details: read-out: Activity

Compound	growth at 0.01 µM
CNC(=O)c1cc(Oc2ccc3nc(NC(=O)c4cc(C(F)(F)F)cc(C(F)(F)F)c4)sc3c2)ccn1	94%

test system: M14; experiment: Antiproliferative activity against human M14 cells assessed as cell growth at 10^-8 M after 48 hrs by sulforhodamine B assay; type: functional; details: M14, 48 h, read-out: Activity

Compound	growth at 0.01 µM
CNC(=O)c1cc(Oc2ccc3nc(NC(=O)c4cc(C(F)(F)F)cc(C(F)(F)F)c4)sc3c2)ccn1	99%

test system: CCRF-CEM; experiment: Antiproliferative activity against human CCRF-CEM cells assessed as cell growth at 10^-6 M after 48 hrs by sulforhodamine B assay; type: functional; details: read-out: Activity

Compound	growth at 1 µM
CNC(=O)c1cc(Oc2ccc3nc(NC(=O)c4cc(C(F)(F)F)cc(C(F)(F)F)c4)sc3c2)ccn1	93%

test system: not listed separately; experiment: Antiproliferative activity against human MOLT4 cells assessed as cell growth at 10^-6 M after 48 hrs by sulforhodamine B assay; type: functional; details: MOLT-4, 48 h, read-out: Activity

Compound	growth at 1 µM
CNC(=O)c1cc(Oc2ccc3nc(NC(=O)c4cc(C(F)(F)F)cc(C(F)(F)F)c4)sc3c2)ccn1	85%

test system: not listed separately; experiment: Antiproliferative activity against human HCT15 cells assessed as cell growth at 10^-6 M after 48 hrs by sulforhodamine B assay; type: functional; details: HCT-15, 48 h, read-out: Activity

Compound	growth at 1 µM
CNC(=O)c1cc(Oc2ccc3nc(NC(=O)c4cc(C(F)(F)F)cc(C(F)(F)F)c4)sc3c2)ccn1	96%

test system: not listed separately; experiment: Antiproliferative activity against human SF295 cells assessed as cell growth at 10^-6 M after 48 hrs by sulforhodamine B assay; type: functional; details: SF-295, 48 h, read-out: Activity

Compound	growth at 1 µM
CNC(=O)c1cc(Oc2ccc3nc(NC(=O)c4cc(C(F)(F)F)cc(C(F)(F)F)c4)sc3c2)ccn1	83%

test system: not listed separately; experiment: Antiproliferative activity against human SNB75 cells assessed as cell growth at 10^-6 M after 48 hrs by sulforhodamine B assay; type: functional; details: SNB-75, 48 h, read-out: Activity

Compound	growth at 1 µM
CNC(=O)c1cc(Oc2ccc3nc(NC(=O)c4cc(C(F)(F)F)cc(C(F)(F)F)c4)sc3c2)ccn1	89%

test system: KM12; experiment: Antiproliferative activity against human KM12 cells assessed as cell growth at 10^-4 M after 48 hrs by sulforhodamine B assay; type: functional; details: KM12, 48 h, read-out: Activity

Compound	growth at 100 µM
CNC(=O)c1cc(Oc2ccc3nc(NC(=O)c4cc(C(F)(F)F)cc(C(F)(F)F)c4)sc3c2)ccn1	-52%

test system: not listed separately; experiment: Antiproliferative activity against human SF268 cells assessed as cell growth at 10^-4 M after 48 hrs by sulforhodamine B assay; type: functional; details: SF-268, 48 h, read-out: Activity

Compound	growth at 100 µM
CNC(=O)c1cc(Oc2ccc3nc(NC(=O)c4cc(C(F)(F)F)cc(C(F)(F)F)c4)sc3c2)ccn1	-37%

test system: not listed separately; experiment: Antiproliferative activity against human SNB75 cells assessed as cell growth at 10^-4 M after 48 hrs by sulforhodamine B assay; type: functional; details: SNB-75, 48 h, read-out: Activity

Compound	growth at 100 µM
CNC(=O)c1cc(Oc2ccc3nc(NC(=O)c4cc(C(F)(F)F)cc(C(F)(F)F)c4)sc3c2)ccn1	-51%

test system: not listed separately; experiment: Antiproliferative activity against human Caki1 cells assessed as cell growth at 10^-6 M after 48 hrs by sulforhodamine B assay; type: functional; details: CAKI-1, 48 h, read-out: Activity

Compound	growth at 1 µM
CNC(=O)c1cc(Oc2ccc3nc(NC(=O)c4cc(C(F)(F)F)cc(C(F)(F)F)c4)sc3c2)ccn1	88%

test system: MDA-MB-435; experiment: Antiproliferative activity against human MDA-MB-435 cells assessed as cell growth at 10^-4 M after 48 hrs by sulforhodamine B assay; type: functional; details: MDA-MB-435, 48 h, read-out: Activity

Compound	growth at 100 µM
CNC(=O)c1cc(Oc2ccc3nc(NC(=O)c4cc(C(F)(F)F)cc(C(F)(F)F)c4)sc3c2)ccn1	-15%
